For series [1] the following is noted: previous report; cited from earlier work.
Series [2] has as its system angiotensin model of hypertensive rats. Briefly: Electrocardiogram (ECG) recording in angiotensin II acute hypertension model. Format: in vivo, male Wistar rats. The following applies: IV formulation. As for the experimental part:
(§1) Six-week-old male Wistar rats with a weight of (250-275 g) were obtained from Zagazig University. They were kept in clear cages made of polypropylene and with good ventilation (3-4 rats in each cage), under constant environmental conditions of 22±2° C. temperature, 50-60% relative humidity and 12-h day and night cycle. Unlimited rodent pellet food and purified water were provided to the rats. The experimental design and animal handling procedures were as indicated by the guidelines of the Ethical Committee for Animal Handling at Zagazig University.
A Powerlab® system (AD Instruments, Bella Vista, Australia) linked to a computer running the LabChart professional software with the ECG module was employed to record the standard surface ECG according to the methodology outlined in a previous report by our group. The ECG module quantitatively assesses the various elements of the ECG.
(§2) After 10 min (stabilization period) of basal recording of invasive blood pressure and ECG, angiotensin II (120 ng/min/kg) was slowly infused through the femoral vein using syringe pump and continued throughout the experiment duration.
(§3) Invasive blood hemodynamics and ECG were continuously recorded throughout the experiment. Saline (0.3 ml) was injected in time control experiments.
(§4) Values of the present study presented in form of mean ±SEM. Statistical analysis was carried out using the Prism 5 computer program (Graph Pad, USA). Statistical comparison was done using repeated measures Two way analysis of variance (ANOVA) followed by Bonferroni' post-hoc test of baseline-corrected data and P<0.05 was considered significant.

The test system is the same in series [3]. Briefly: Invasive blood pressure recording in angiotensin II acute hypertension model. The class given is in vivo, male Wistar rats. The following applies: for anti-hypertensive effect: current study, IV SNEDDS formulation, angiotensin II infused rats. As for the experimental part:
as §1
The blood pressure was recorded invasively in real. The rats were subjected to anesthesia with single intraperitoneal injection of 100 mg/kg ketamine and 10 mg/kg xylazine. Animals' body temperature was held at 37° C. by means of a rectal probe and automated heating pads. A micro-tip pressure volume catheter (PV catheter, SPR-901, Millar Instruments, Houston, Tex., USA) was inserted via a small opening into the right carotid artery. This instrument can continuously monitor the arterial pressure. The micro-tip catheter was linked via a Power Lab Data Interface to a computer running the Lab Chart professional software (v8.0, AD Instruments, Bella Vista, Australia) incorporating blood pressure (BP) module. Following a stabilization time of 5 min, readings were continuously recorded. The BP module was employed to monitor the systolic and diastolic blood pressure.
as §2, §3, §4

Setting [4] is: dose 36 μg/kg, vs vehicle group, p<0.05.
Where [5] appears, read: IV formulation, 10 min after doses 24 and 36 μg/kg, vs vehicle group, p<0.05.

With `COc1cc(-c2cc(=O)c3c(O)c(OC)c(OC)cc3o2)cc(OC)c1OC` [Compound 1, umuhengerin], the vasodilation activity result in series [1] is listed as “significant vasodilation activity”. Further, in series [2] (12, 24, 36 μg/kg), the JT interval entry was “no significant effect”, the P-wave duration entry was “did not affect”, the PR interval entry is on record as “did not affect” and the QTc interval entry is “no significant effect”. Further, in series [2] (setting [4]), the R wave amplitude result was “significant decrease” and the T wave amplitude result is reported as “increase”. The reflex tachycardia result in series [3] (IV SNEDDS containing 10% linoleic acid) is “without reflex tachycardia”. Also, in series [3] (setting [5]), the dicrotic notch pressure result was “significant reduction” and the pulse pressure entry is on record as “significant reduction”. The non-ejection duration result in series [3] (IV formulation, dose 36 μg/kg, vs vehicle group) is “significant increase”. For the same molecule, in series [3] (IV formulation, doses 12, 24 and 36 μg/kg, vs vehicle group, p<0.05), the “SDP difference (systolic blood pressure-dicrotic notch pressure difference)” value is listed as “significant reduction”. Besides, the ejection duration entry in series [3] (IV formulation, doses 24 and 36 μg/kg, vs vehicle group) is “significant decrease”. In series [3] (IV formulation, vs vehicle group), the time to peak result is listed as “no change”. For the same molecule, in series [3] (IV linoleic acid SNEDDS formulation, 12, 24 and 36 μg/kg, 10 min after each dose, p<0.05), the systolic blood pressure entry is “gradual dose dependent reduction”. For the same molecule, the diastolic blood pressure entry in series [3] (IV linoleic acid SNEDDS formulation, significant at 24 and 36 μg/kg vs plain IV formulation, p<0.05) was “gradual and reached a plateau with statistical significance”. Moreover, in series [3], the anti-hypertensive effect result is “observed”. For the same molecule, the heart rate result in series [3] (medicated IV formulation compared with the plain IV formulation) was “did not produced any further effect”.

`COc1ccc(-c2cc(=O)c3c(O)cc(O)cc3o2)cc1OC` [Compound 4, luteolin-3′,4′ -dimethyl ether]: the vasodilation activity entry in series [1] is listed as “significant vasodilation activity”. In addition, the anti-hypertensive effect entry in series [3] is given as “lack of antihypertensive efficacy”.

(Values after patent US20220280425A1, “FLAVONOIDS AND LINOLEIC ACID USES IN HYPERTENSION” (King Abdulaziz University, priority 2021, published 2022).)
